The test system of one assay is Rats. Kind of assay: Rat model of post-operative ileus (methylene blue meal transit). Type of assay: in vivo. Particulars: 3 mg/kg intravenous infusion; four hours post-gavage; eight rats; p<0.05; vehicle 49.3 cm. The method, then: Activity in Vivo: Rat Model of Post Perative Ileus
The selective COX-2 inhibitor 2-(4-ethoxy-phenyl)-3-(4-methanesulfonyl-phenyl)-pyrazolo[1,5-b]pyridazine was evaluated in a rat model of post-operative ileus. The methodology represents a modification of the procedure described by McGill et al, Gastroenterology 116: A1040 (1999).
Rats (fourteen) received 0.5 cc of skimmed milk with methylene blue by gavage. Either vehicle (six rats) or 2-(4-ethoxy-phenyl)-3-(4-methanesulfonyl-phenyl)-pyrazolo[1,5-b]pyridazine (eight rats) was then administered by intravenous infusion. Rats were sacrificed four hours post-gavage and the distance the methylene blue meal traversed the intestine measured. The pylorus was set at 0 cm. With vehicle treatment, the meal traversed 49.3+1.3 cm while with 2-(4-ethoxy-phenyl)-3-(4-methanesulfonyl-phenyl)-pyrazolo[1,5-b]pyridazine (3 mg/kg), the meal traversed 67.8±1.1 cm (p<0.05).

The subject of assay [1] is canine fundic circular muscle. Kind of assay: Smooth muscle in vitro model: fundic circular muscle strips, tension change. The class given is cell-based. Particulars: test agent 10 μM; n=6-8 strips; FIG. 2.
The test system of a further assay is Beagle dogs. The experiment in a line: Dog model of gastric emptying (solid phase, gamma camera). The class given is in vivo. The settings on record: po for three days, measured on fourth day after am dosing; cisapride 0.14 mg/kg TID, celecoxib 2.8 mg/kg BID, 8-acetyl compound 1.2 mg/kg BID; FIG. 3. The procedure: Activity in Vivo: Dog Model of Gastric Emptying
Beagle dogs were treated for three days with test agents (po administration): placebo BID; cisapride 0.14 mg/kg TID; celecoxib 2.8 mg/kg BID; or 8-acetyl-3-(4-fluoro-phenyl)-2-(4-methanesulfonyl-phenyl)-imidazo[1,2-a]pyridine 1.2 mg/kg BID. Solid phase gastric emptying was measured on the fourth day following am dosing. The same three animals were used for evaluation of each agent, thus reducing any interanimal variations.
Isotope-labeled solid food was fed to the dogs for their morning meal and animals were then placed under a gamma camera and scans performed over the 24 to 36 hours.

In the next assay the test system is dogs. Kind of assay: Dog model of lower esophageal sphincter pressure (LESP). The class given is in vivo. Particulars: 3 days treatment, measured day 4 after am dose; cisapride 0.14 mg/kg TID, celecoxib 1.2 mg/kg BID; compared to placebo; FIG. 4. The method, then: Activity in Vivo: Dog Model of Lower Esophageal Sphincter Pressure (LESP) Six adult dogs were instrumented with 14 French esophagostomy tubes. Animals were treated for 3 days with placebo (BID), cisapride (0.14 mg/kg TID) or celecoxib (1.2 mg/kg BID). On day 4 dogs received their am dose of test agent and water perfused manometry catheters were inserted through the esophagostomy tubes. Lower esophageal sphincter pressures (LESPs) were then monitored.

For assay [2], the system named is canine antrum circular muscles. The experiment in a line: Smooth muscle in vitro model: antral circular muscle strips, acetylcholine-induced contraction. The settings on record: test agent 10 μM; acetylcholine 1 μM; organ bath, Krebs solution; n=4-8 strips; FIG. 1. The class given is cell-based. The procedure:
Smooth Muscle in Vitro Model of Gastric Propulsion
Agents which stimulate antral smooth muscle activity would be expected to enhance the rate of gastric emptying by propulsion of contents in the aboral direction. By contrast, fundic relaxation could lead to delayed emptying of the stomach as the upper stomach would serve as a reservoir for gastric contents.
The effects of test agents were evaluated on strips of canine antrum circular muscles (n=4-8 strips) suspended in organ baths bathed with Krebs solution. Following establishment of baseline tension, acetylcholine (“ACh”; 1 μM), indomethacin (10 μM), or 8-acetyl-3-(4-fluoro-phenyl)-2-(4-methanesulfonyl-phenyl)-imidazo[1,2-a]pyridine (“8-Acetyl- . . . ”; 10 μM) were applied and tension changes monitored and recorded on a polygraph.

The record followed here is patent publication US20030013717A1, “Use of cox-2 inhibitors for constipation” (priority 2000, published 2003).

For the molecule `CCOc1ccc(-c2nn3ncccc3c2-c2ccc(S(C)(=O)=O)cc2)cc1` [2-(4-ethoxy-phenyl)-3-(4-methanesulfonyl-phenyl)-pyrazolo[1,5-b]pyridazine], the “distance the methylene blue meal traversed the intestine (pylorus = 0 cm)” value in the assay with Rats was 67.8±1.1 cm.
Consider `CC(=O)c1cccn2c(-c3ccc(F)cc3)c(-c3ccc(S(C)(=O)=O)cc3)nc12` [8-acetyl-3-(4-fluoro-phenyl)-2-(4-methanesulfonyl-phenyl)-imidazo[1,2-a]pyridine], for which the “relaxation / tension change of fundic circular muscle” value in assay [1] is given as “only small changes in tension”. Also, the “rate of solid phase gastric emptying” value with Beagle dogs was “increased the rate of gastric emptying”.
On to `COc1cc(N)c(Cl)cc1C(=O)NC1CCN(CCCOc2ccc(F)cc2)CC1OC` (stereo not shown) [Cisapride, cisapride], for which, in the assay with Beagle dogs, the “rate of solid phase gastric emptying” value is on record as “increased the rate of gastric emptying”. For the same molecule, the “lower esophageal sphincter pressure (LESP)” value in the assay with dogs is given as “increased LESP”.
As for `COc1ccc2c(c1)c(CC(=O)O)c(C)n2C(=O)c1ccc(Cl)cc1` [indomethacin], in assay [2], the “sensitisation of antral circular muscle to acetylcholine-induced contractions” value is on record as “enhanced acetylcholine-induced contractions”. Also, the “relaxation / tension change of fundic circular muscle” value in assay [1] is on record as “near complete relaxation”.
